# Results from US20260258025A1, “INHIBITORS OF TDP-43 AND TAU AGGREGATION” (Aquinnah Pharmaceuticals, inc., priority 2023, published 2026).
# System: TDP-43 aggregation
# Test: TDP-43 aggregation assay in SY5Y TDP-43WT cells (high content imaging)
# Format: cell-based
# Details: Homo sapiens, tetracycline induction 24 hrs, 1 hour compound pre-treatment, sodium arsenite 23 hrs, 8-point dose curve, percentage of cells with TDP-43 aggregates, read-out: IC50, Inhibition of TDP-43 Aggregation
# Procedure: Exemplary compounds disclosed herein were evaluated for efficacy in inhibiting TDP-43 inclusions cellular imaging-based assays.
# The cellular model was in human neuroblastoma SH SYSY cells (ATCC, cat #: CRL-2266). The parent cell line was first engineered to stably express a tetracycline repressor protein (designated as TREx-SY5Y cells, customer cell line development by ThermoFisher). Wild-type human TDP-43 with a C-terminus eGFP tag was synthesized and cloned into pcDNA5/TO expression vector (ThermoFisher). The plasmid was transfected into TREx-SY5Y cells using Lipofectamine 2000 and hygromycin resistant colonies were selected. Expression of TDP-43WT::eGFP was examined under fluorescent microscopy and Western blot upon tetracycline induction. The clone that was used for TDP-43 aggregation assay is referred to as SY5Y TDP-43WT cells hereafter.
# Compound inhibition of TDP-43 aggregation was tested in an 8-point dose curve in 96-well format. Briefly, TDP-43WT::eGFP expression was induced with […] for 24 hrs (SY5Y TDP-43WT cells). The cells were then pre-treated for 1 hour with exemplary compounds before adding sodium arsenite to a final concentration of […] and incubated for another 23 hrs. At the end of the treatment the cell monolayers were washed in PBS and fixed in 4% paraformaldehyde (PFA), diluted from 16% stock (Electron Microscopy Sciences cat: #15710-S). The inhibitory effect on TDP-43 aggregation was measured using CellInsight CX7 high content imager (ThermoFisher). The percentage of cells with TDP-43 aggregates was calculated based on the total number of cells identified by DAPI staining. An 8-point dose response curve was generated, and the IC50 for each compound tested was determined (Table 3).
# In Table 3 below, A indicates an IC50 (nM)<500 nM, B indicates an IC50 (nM) 500 nM to <1000 nM, C indicates an IC50 (nM) 1000 nM to <2000 nM, D indicates an IC50 (nM) 2000 nM to <6000 nM, and E indicates an IC50 (nM) 6000 nM to ≤10000 nM.
row,SMILES,IC50 [nM]
1,"Cc1cc(-c2ccc3c(c2)CCN(C)C3)sc1C(=O)N1CC[C@H](N)C1 [Compound 191, (S)-(3-aminopyrrolidin-1-yl)(3-methyl-5-(2-methyl-1,2,3,4-tetrahydroisoquinolin-6-yl)thiophen-2-yl)methanone]",< 500
2,"Cc1cc(-c2ccc(C3(N(C)C)CCCCC3)cc2)sc1C(=O)N1CC[C@H](N)C1 [Compound 192, (S)-(3-aminopyrrolidin-1-yl){5-[4-(1-dimethylaminocyclohexyl)phenyl]-3-methylthiophen-2-yl}methanone]",2000 to 6000
3,"Cc1cc(-c2ccc3c(c2)OCCC3)sc1C(=O)N1CC[C@H](N)C1 [Compound 194, (S)-(3-aminopyrrolidin-1-yl)(5-(chroman-7-yl)-3-methylthiophen-2-yl)methanone]",500 to 1000
4,"Cc1cc(-c2ccc3c(c2)COCC3)sc1C(=O)N1CC[C@H](N)C1 [Compound 195, (S)-(3-aminopyrrolidin-1-yl)[5-(isochroman-7-yl)-3-methylthiophen-2-yl]methanone]",1000 to 2000
5,"Cc1cc(-c2ccc3c(c2)N(C)CCC3)sc1C(=O)N1CC[C@H](N)C1 [Compound 196, (S)-(3-aminopyrrolidin-1-yl)(3-methyl-5-(1-methyl-1,2,3,4-tetrahydroquinolin-7-yl)thiophen-2-yl)methanone]",6000 to 10000
6,"Cc1cc(-c2ccc(COc3ccccc3)cc2)sc1C(=O)N1CC[C@H](N)C1 [Compound 204, (S)-(3-aminopyrrolidin-1-yl){3-methyl-5-[4-(phenoxymethyl)phenyl]thiophen-2-yl}methanone]",6000 to 10000
7,CCc1ccc(-c2cc(C)c(C(=O)N3CC[C@H](N)C3)s2)cc1C [Compound 220],6000 to 10000
8,Cc1cnc(-c2cc(C)c(C(=O)N3CC[C@H](N)C3)s2)cn1 [Compound 223],1000 to 2000
9,CCc1ccc(-c2sc(C(=O)N3CC[C@H](N)C3)c(C)c2C)cc1 [Compound 233],6000 to 10000
10,Cc1cc(-c2ccc(-c3ccccc3)cc2)sc1C(=O)N1CC[C@H](N)C1 [Compound 234],2000 to 6000
11,Cc1cc(-c2ccc(Cl)c(Cl)c2)sc1C(=O)N1CC[C@H](N)C1 [Compound 244],2000 to 6000
12,Cc1cc(-c2cc(Cl)cc(Cl)c2)sc1C(=O)N1CC[C@H](N)C1 [Compound 245],6000 to 10000
13,"COCCN1CCC(c2ccc(-c3cc(C)c(C(=O)N4CC[C@H](N)C4)s3)cc2Cl)CC1 [Compound 248, (S)-(3-aminopyrrolidin-1-yl)(5-(3-chloro-4-(1-(2-methoxyethyl)piperidin-4-yl)phenyl)-3-methylthiophen-2-yl)methanone]",500 to 1000
14,"COC(C)(C)CN1CCC(c2ccc(-c3cc(Cl)c(C(=O)N4CC[C@H](N)C4)s3)cc2F)CC1 [Compound 249, (S)-(3-aminopyrrolidin-1-yl)(3-chloro-5-(3-fluoro-4-(1-(2-methoxy-2-methylpropyl)piperidin-4-yl)phenyl)thiophen-2-yl)methanone]",< 500
15,"COC(C)CN1CCC(c2ccc(-c3cc(Cl)c(C(=O)N4CC[C@H](N)C4)s3)cc2F)CC1 (stereo partly drawn) [Compound 250, ((S)-3-aminopyrrolidin-1-yl)(3-chloro-5-(3-fluoro-4-(1-(2-methoxypropyl)piperidin-4-yl)phenyl)thiophen-2-yl)methanone]",< 500
16,"COC(C)CN1CCC(c2ccc(-c3cc(C)c(C(=O)N4CC[C@H](N)C4)s3)cc2F)CC1 (stereo partly drawn) [Compound 251, ((S)-3-aminopyrrolidin-1-yl)(5-(3-fluoro-4-(1-(2-methoxypropyl)piperidin-4-yl)phenyl)-3-methylthiophen-2-yl)methanone]",< 500
17,"N[C@H]1CCN(C(=O)c2sc(-c3ccc(C4CCN(C5CCOCC5)CC4)c(Cl)c3)cc2OC(F)(F)F)C1 [Compound 252, (S)-(3-aminopyrrolidin-1-yl)(5-(3-chloro-4-(1-(tetrahydro-2H-pyran-4-yl)piperidin-4-yl)phenyl)-3-(trifluoromethoxy)thiophen-2-yl)methanone]",6000 to 10000
18,"COCCN1CCC(c2ccc(-c3cc(Cl)c(C(=O)N4CC[C@H](N)C4)s3)cc2Cl)CC1 [Compound 253, (S)-(3-aminopyrrolidin-1-yl)(3-chloro-5-(3-chloro-4-(1-(2-methoxyethyl)piperidin-4-yl)phenyl)thiophen-2-yl)methanone]",< 500
19,"COC(C)(C)CN1CCC(c2ccc(-c3cc(C)c(C(=O)N4CC[C@H](N)C4)s3)cc2F)CC1 [Compound 254, (S)-(3-aminopyrrolidin-1-yl)(5-(3-fluoro-4-(1-(2-methoxy-2-methylpropyl)piperidin-4-yl)phenyl)-3-methylthiophen-2-yl)methanone]",< 500

# Now from value to molecule:
row,IC50 [nM],SMILES
1,< 500,"Cc1cc(-c2ccc(C(C)(C)N(C)C)cc2)sc1C(=O)N1CC[C@H](N)C1 [Compound 190, (S)-(3-aminopyrrolidin-1-yl)(5-(4-(2-(dimethylamino)propan-2-yl)phenyl)-3-methylthiophen-2-yl)methanone]"
2,500 to 1000,"Cc1cc(-c2ccc(C3(N(C)C)CCCC3)cc2)sc1C(=O)N1CC[C@H](N)C1 [Compound 193, (S)-(3-aminopyrrolidin-1-yl){5[4-(1-dimethylaminocyclopentyl)phenyl]-3-methylthiophen-2-yl}methanone]"
3,1000 to 2000,"Cc1cc(-c2ccc3c(c2)NCCC3)sc1C(=O)N1CC[C@H](N)C1 [Compound 197, (S)-(3-aminopyrrolidin-1-yl)(3-methyl-5-(1,2,3,4-tetrahydroquinolin-7-yl)thiophen-2-yl)methanone]"
4,1000 to 2000,"Cc1cc(-c2ccc(COC3CCOCC3)cc2)sc1C(=O)N1CC[C@H](N)C1 [Compound 202, (S)-(3-aminopyrrolidin-1-yl)(3-methyl-5-(4-((tetrahydro-2H-pyran-4-yloxy)methyl)phenyl)thiophen-2-yl)methanone]"
5,2000 to 6000,"Cc1cc(-c2ccc(COC3CCCCC3)cc2)sc1C(=O)N1CC[C@H](N)C1 [Compound 203, (S)-(3-aminopyrrolidin-1-yl){5-[4-(cyclohexyloxymethyl)phenyl]-3-methylthiophen-2-yl}methanone]"
6,500 to 1000,"Cc1cc(-c2ccc(C3CCNCC3)cc2)sc1C(=O)N1CC[C@H](N)C1 [Compound 205, (S)-(3-aminopyrrolidin-1-yl){3-methyl-5-[4-(piperidin-4-yl)phenyl]thiophen-2-yl}methanone]"
7,< 500,CNCc1ccc(-c2cc(C)c(C(=O)N3CC[C@H](N)C3)s2)cc1 [Compound 218]
8,< 500,Cc1cc(-c2ccc(CN)cc2)sc1C(=O)N1CC[C@H](N)C1 [Compound 219]
9,6000 to 10000,Cc1cc(-c2ccc(C3=CCCCC3)cc2)sc1C(=O)N1CC[C@H](N)C1 [Compound 224]
10,< 500,Cc1ccc(-c2cc(C)c(C(=O)N3CC[C@H](N)C3)s2)cc1 [Compound 225]
11,2000 to 6000,CCCc1ccc(-c2cc(C)c(C(=O)N3CC[C@H](N)C3)s2)cc1 [Compound 227]
12,500 to 1000,CCc1ccc(-c2cc(C)c(C(=O)N3CC[C@H](N)C3)s2)cc1 [Compound 228]
13,500 to 1000,Cc1cc(-c2ccc3c(c2)CCCO3)sc1C(=O)N1CC[C@H](N)C1 [Compound 229]
14,2000 to 6000,Cc1cc(-c2ccc(C(C)C)cc2)sc1C(=O)N1CC[C@H](N)C1 [Compound 230]
15,500 to 1000,Cc1cc(-c2ccc(C3CCC3)cc2)sc1C(=O)N1CC[C@H](N)C1 [Compound 232]
16,< 500,Cc1cc(-c2ccc(C3COC3)cc2)sc1C(=O)N1CC[C@H](N)C1 [Compound 235]
17,< 500,Cc1cc(-c2ccc(C3=CCOCC3)cc2)sc1C(=O)N1CC[C@H](N)C1 [Compound 236]
18,6000 to 10000,Cc1cc(-c2ccc(C3CCCCC3)cc2)sc1C(=O)N1CC[C@H](N)C1 [Compound 238]
19,500 to 1000,Cc1cc(-c2ccc(N3CCOCC3)cc2)sc1C(=O)N1CC[C@H](N)C1 [Compound 239]
20,6000 to 10000,Cc1cc(-c2ccc(C3CCCC3)cc2)sc1C(=O)N1CC[C@H](N)C1 [Compound 241]
21,< 500,Cc1cc(-c2ccc(-c3cn[nH]c3)cc2)sc1C(=O)N1CC[C@H](N)C1 [Compound 242]
22,< 500,Cc1cc(-c2ccc(C3CCOCC3)cc2)sc1C(=O)N1CC[C@H](N)C1 [Compound 243]
23,6000 to 10000,Cc1cc(-c2ccc3ccccc3c2)sc1C(=O)N1CC[C@H](N)C1 [Compound 246]
24,6000 to 10000,Cc1cc(-c2ccc3c(c2)CCCC3)sc1C(=O)N1CC[C@H](N)C1 [Compound 247]
25,< 500,"N[C@H]1CCN(C(=O)c2sc(-c3ccc(C4CCN(C5CCOCC5)CC4)cc3)cc2Br)C1 [Compound 255, (S)-(3-aminopyrrolidin-1-yl)(3-bromo-5-(4-(1-(tetrahydro-2H-pyran-4-yl)piperidin-4-yl)phenyl)thiophen-2-yl)methanone]"
